Assay results published in patent US8653048B2 (Sanlugen Pharmatech Ltd., priority 2009, dated 2014).

How the values were obtained:
[1] = system: A549: a human lung cancer cell line; experiment: MTT analytical method, A549 cells; type: cell-based; conditions: 72 h
Text: (§1) MTT analytical method was used to test the prodrugs for various tumor cells.
(§2) • 1) Cell lines: NCI-H460, A549, LOVO, HT-29, MDA-MB-231, SGC7901, HepG2 or BEL-7402 cell lines. Culture: adherent culturing in D-MEM (Hyclone, Inc.) containing 10% fetal calf serum. The initial cell concentration was about 3×10^5 /mL. The cell was passaged by 1:3 dilution in every 2-3 days. On the day before the test, the cell was passaged by 1:2 dilution, the cell concentration for the test was 5-10×10^5 /mL. • 2) Dissolution and dilution of compounds: according to the weight and molecular weight of the drugs provided, 100-200 μL of DMSO was added. Then normal saline was added to make the final diluted concentration of the drugs be 5 mM (Note that the final concentration of DMSO should not be more than 10%). • 3) D-MEM or RPMI 1640 cell culture medium, Gibco, Inc. • 4) Fetal calf serum Hyclone, Inc. • 5) Cell dissociation buffer, 0.25% Trypsin+0.02% EDTA. • 6) MTT solution, MTT Powder (Sigma) were dissolved in PBS buffer solution to make a solution of 5 mg/mL. The solution was filtered by a 0.22 μm micropore membrane and stored at −20° C. • 7) PBS buffer solution. • 8) 10% acidified SDS, 0.01N HCl. • 9) Centrifuge tubes, haustorial tubes etc. (BD, Inc.); 96-well plates (Costatr, Inc.) Procedures: • 1) Cell inoculation: Cells grown for 24 hours after passage, which cells were in good growth state, were used. The cells were harvested by the routine method. The cell concentration was adjust with a fresh culture solution to 2×10^5/mL (for adherent cells)-3×10^5/mL (for suspension cells). The adherent cells were inoculated at 100 μL/well and then cultivated in an incubator with 5% CO2 at 37° C. for 24 h. Thereafter the used culture solution was removed and 95 μL/well of fresh culture solution was added. The suspension cells were inoculated at 95 μL/well directly. • 2) Drugs treatment: 9 concentration grades were designed for every drug, and every concentration had 3 wells. The control group had 5 wells. The control group was tested simultaneously in each test. The final concentrations of a drug added were […], and 5 μL normal saline was added to the control group. • 3) Cell culture and detection: the cells were cultured in an incubator with 5% CO2 at 37° C. for 72 h after the drug was added, then 10 μL MTT was added to each well and the culture was continued for 4 h. 100 μL of 10% SDS (containing 0.01N HCl) was added to each well. After 24 h, the absorbance (A) of each well was determined by Bio-rad 680 ELISA with the detection wavelength of 570 nm and the reference wavelength of 630 nm. Calculation:
(§3) First, the absorbance (A) of each well was averaged (removing any data with big difference). […] A0 was the mean absorbance of the control wells. The effect curve of the drug concentration was drawn using EXCEL software and the drug concentration for 50% cell survival was calculated according to an appropriate computing methods.

[2] = system: LOVO: a human colon cancer cell line; experiment: MTT analytical method, LOVO cells; type: cell-based; conditions: 72 h
Text: as §1, §2, §3

[3] = system: SGC7901: a human gastric cancer line; experiment: MTT analytical method, SGC7901 cells; type: cell-based; conditions: SGC-7901, 72 h
Text: as §1, §2, §3

[4] = In vitro stability in simulated intestinal fluid (HPLC); type: physicochemical; conditions: for stability in simulated intestinal fluid (in words): 0-24 h; for HPLC peak area of drug / Degrade %: simulated intestinal fluid
[5] = Stability in human blood plasma (HPLC); type: in vitro ADME; conditions: for stability in blood plasma (in words): 0-12 h; for Degrade % / chromatography peak area of drug: plasma
Procedure: Isopropanol (1 mL) was then added into the blood sample and vortexed for 30 s and kept still for 5 min. 2.5 ml of EtOAc was added and votexed and centrifuged at 4000 rpm for 15 minutes. The supernatant was taken and dried by blowing in nitrogen. The dried sample was redissolved in 200 μL HPLC mobile phase solution. 20 μL sample was loaded to the HPLC.
The samples were processed using the standard method.

[6] = Metabolism in liver microsomal enzymes (liver S9 fraction); type: in vitro ADME, mouse; conditions: for HPLC peak area of drug: liver S9 fraction + NADPH, 37° C.; for Degrade %: liver S9 fraction
Procedure: The liver of a mouse was taken out and washed by cold normal saline and dried with filter paper, then cut into small pieces. They were washed 2-3 times with ice cold PBS (pH=7.4) until the elute became colorless or faint yellow. The small pieces of the liver were cut into fragments. Then PBS (pH=7.4) solution in an amount four times of the weight of the liver was added. The liver fragments were homogenated under ice-bath to avoid the down-regulation of enzymatic activity. The homogenated mixture was transferred into a centrifuge tube with stopper and centrifuged for 20 min at 4000 r/min to get the supernatant. Then, the supernatant was centrifuged at 12000 r/min for 20 min to get the supernatant, which was the S9 fraction.
Liver microsomal S9 was mixed with drug solutions. 1800 μL of the mixture in test tube was pre-incubated in a water-bath for 5 min at 37° C. 200 μL of 10 mmol/L NADPH solution was added to start the reaction. The final reaction volume was 2 mL. 200 μL of the incubation solution was taken at 0 min, 10 min, 20 min, 40 min, 1 h, 2 h, 4 h, 6 h, 12 h, respectively. 1 mL of ice cold isopropanol was added into the solution immediately and vortexed for 30 s and kept still for 5 min. 2.5 mL of EtOAc was added and vortexed and centrifuged at 4000 rpm for 15 min. The supernatant was taken and dried by blowing in nitrogen. The dried sample was redissolved in 200 μL HPLC mobile phase solution. 20 μL sample was loaded to the HPLC. The chromatography and peak area were recorded.

[7] = system: HT29 tumor transplanted in nude mice; experiment: HT29 tumor transplanted in nude mice, intravenous administration; conditions: for inhibitory rate (relative tumor volume) at the end of the experiments: HT29; for weight loss rate: 20 mg/kg i.v., d17, HT29 nude mice; for toxicity judged by body weight loss, in words: mouse, in vivo, iv
Procedure: 1. […] The drugs were packaged and stored at −20° C.
The treatment starting day was the first day (d0). […] The tumor tissues were removed and weighed. The inhibition rate of tumor growth was calculated.

CCCCCCCCCCCCOC(=O)c1nccnc1C(=O)Nc1ccn([C@@H]2O[C@H](CO)[C@@H](O)C2(F)F)c(=O)n1 [Compound 4, Dodecyl-3-((1-((2R,4R,5R)-3,3-difluoro-4-hydroxy-5-(hydroxymethyl)-tetrahydrofuran-2-yl)-2-oxo-1,2-dihydropyrimidin-4-yl)carbamoyl)pyrazine-2-carboxylate]
IC50 [1]: < 2 µM | IC50 [2]: 16 µM | IC50 [3]: > 16 µM | stability in simulated intestinal fluid (in words) [4]: stable | HPLC peak area of drug ([4]; 0 min): 288987.906 | HPLC peak area of drug ([4]; 1 h): 231129.797 | HPLC peak area of drug ([4]; 2 h): 196319.828 | HPLC peak area of drug ([4]; 4 h): 245622.906 | HPLC peak area of drug ([4]; 6 h): 247957.219 | HPLC peak area of drug ([4]; 8 h): 239958.297 | HPLC peak area of drug ([4]; 12 h): 247782.500 | HPLC peak area of drug ([4]; 24 h): 256782.600 | stability in blood plasma (in words) [5]: degradable | Degrade % ([5]; 0 min): 0% | chromatography peak area of drug ([5]; 0 min): 336275.344 | Degrade % ([5]; 1 h): 2.77% | chromatography peak area of drug ([5]; 1 h): 326948.219 | Degrade % ([5]; 2 h): 22.11% | chromatography peak area of drug ([5]; 2 h): 261917.094 | Degrade % ([5]; 4 h): 46.99% | chromatography peak area of drug ([5]; 4 h): 178242.781 | Degrade % ([5]; 6 h): 82.31% | chromatography peak area of drug ([5]; 6 h): 59465.750 | Degrade % ([5]; 8 h): 89.64% | chromatography peak area of drug ([5]; 8 h): 43894.633 | Degrade % ([5]; 12 h): 96.17% | chromatography peak area of drug ([5]; 12 h): 12894.514 | HPLC peak area of drug ([6]; 0 min): 179613.3 | HPLC peak area of drug ([6]; 1 h): 172893.5 | HPLC peak area of drug ([6]; 2 h): 142419.3 | HPLC peak area of drug ([6]; 4 h): 64632.59 | HPLC peak area of drug ([6]; 6 h): 27009.4 | HPLC peak area of drug ([6]; 12 h): 18730.51 | Degrade % ([6]; 0 min): 0% | Degrade % ([6]; 1 h): 3.74% | Degrade % ([6]; 2 h): 20.71% | Degrade % ([6]; 4 h): 64.02% | Degrade % ([6]; 6 h): 84.96% | Degrade % ([6]; 12 h): 89.57% | inhibitory rate (relative tumor volume) at the end of the experiments ([7]; 20 mg/kg i.v. (Gem group; SL01 middle dosage group)): 23% | weight loss rate [7]: 8% | inhibitory rate (relative tumor volume) at the end of the experiments ([7]; SL01 high dosage group 40 mg/kg i.v.): 7% | toxicity judged by body weight loss, in words [7]: neither the gemcitabine positive control group nor SL-01 has obvious toxicity

Nc1ccn([C@@H]2O[C@H](CO)[C@@H](O)C2(F)F)c(=O)n1 [Gemcitabine, gemcitabine, reference compound]
IC50 [1]: < 2 µM | IC50 [2]: < 1 µM | IC50 [3]: > 16 µM | stability in simulated intestinal fluid (in words) [4]: degraded | Degrade % ([4]; 0 min): 0% | HPLC peak area of drug ([4]; 0 min): 643704.938 | Degrade % ([4]; 1 h): 27.67% | HPLC peak area of drug ([4]; 1 h): 465528.594 | Degrade % ([4]; 2 h): 36.2% | HPLC peak area of drug ([4]; 2 h): 410685.313 | Degrade % ([4]; 4 h): 59.98% | HPLC peak area of drug ([4]; 4 h): 257604.125 | Degrade % ([4]; 6 h): 69.37% | HPLC peak area of drug ([4]; 6 h): 197106.406 | Degrade % ([4]; 8 h): 76.72% | HPLC peak area of drug ([4]; 8 h): 149816.906 | Degrade % ([4]; 12 h): 98.46% | HPLC peak area of drug ([4]; 12 h): 9873.897 | Degrade % ([4]; 24 h): 99.13% | HPLC peak area of drug ([4]; 24 h): 5571.352 | stability in blood plasma (in words) [5]: stable | chromatography peak area of drug ([5]; 0 min): 562562.938 | chromatography peak area of drug ([5]; 1 h): 592859.625 | chromatography peak area of drug ([5]; 2 h): 466418.094 | chromatography peak area of drug ([5]; 4 h): 483743.594 | chromatography peak area of drug ([5]; 6 h): 552648.313 | chromatography peak area of drug ([5]; 8 h): 540059.125 | chromatography peak area of drug ([5]; 12 h): 544300.688 | Degrade % ([6]; 0 min): 0% | Degrade % ([6]; 1 h): 3.64% | Degrade % ([6]; 2 h): 56.16% | Degrade % ([6]; 4 h): 72.02% | Degrade % ([6]; 6 h): 85.55% | Degrade % ([6]; 12 h): 95.13% | weight loss rate [7]: 4% | toxicity judged by body weight loss, in words [7]: neither the gemcitabine positive control group nor SL-01 has obvious toxicity
